Measured values published in article PMC8214093, “Structural basis of KdpD histidine kinase binding to the second messenger c-di-AMP” (The Journal of Biological Chemistry, 2021).
Where two headings read alike, the source gives them in different places.

What was measured:
USPSa-WT [1] = target: T1, USPSa-WT (Staphylococcus aureus, UniProt A0A7U7EVR3); assay: biochemical; type: binding; details: for Kd: Dissociation Constant (KD) ± Standard Deviation, changes in initial fluorescence
Experimental: For labeling, the proteins were diluted to a concentration of 800 nM in binding buffer (50 mM potassium phosphate, pH 8.0, 800 mM NaCl, and 0.05% Tween 20), mixed with an equal volume of RED-Tris-NTA dye (80 nM), and incubated on ice in the dark for 30 min. […] The labeled proteins and the ligand dilutions were then mixed in a 1:1 ratio and incubated on ice in the dark for 30 min.
The samples were then loaded into Monolith standard-treated capillaries in triplicate, and the changes in fluorescence were measured with 40% LED power and 20% IR-laser power for an on-time of 20-s at 23 °C. To determine the binding affinity, the ligand-dependent changes in the intensity of the initial fluorescence, or the thermophoretic mobility, were analyzed according to the law of mass action in a standard fitting mode of MO.Affinity analysis software (version 2.3). To exclude the possibility of nonspecific binding of the ligand to the His6-tag (on USPSa) or ligand-induced USP adsorption to labware or due to aggregation, we performed His6-peptide and EDTA tests, respectively ([91]). […] In the EDTA test, the binding buffer additionally contained 50 mM EDTA to disrupt the interaction between His6-USP and the RED-Tris-NTA dye.

USPSa-Y248A = target: T2, USPSa-Y248A (Staphylococcus aureus, UniProt A0A7U7EVR3, Y248A); assay: MicroScale Thermophoresis (initial fluorescence change) nucleotide binding; details: Y248A mutant
T2 sequence (A0A7U7EVR3 213-364 Y248A): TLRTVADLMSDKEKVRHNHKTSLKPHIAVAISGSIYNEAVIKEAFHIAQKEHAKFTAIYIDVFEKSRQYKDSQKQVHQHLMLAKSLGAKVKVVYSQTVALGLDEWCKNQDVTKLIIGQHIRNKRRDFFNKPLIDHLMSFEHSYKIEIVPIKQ
Experimental: (§1) The ligand-binding specificity of USPSa, the role of USPSa residues in c-di-AMP binding, and the c-di-AMP binding affinity of USP homologs were biochemically determined by MST, using purified WT and mutant proteins. […] For these MST experiments, WT and active-site mutants of His6-USPSa were first fluorescently labeled using a RED-Tris NTA Monolith His-Tag labeling kit (Nanotemper, Technologies, Inc). For labeling, the proteins were diluted to a concentration of 800 nM in binding buffer (50 mM potassium phosphate, pH 8.0, 800 mM NaCl, and 0.05% Tween 20), mixed with an equal volume of RED-Tris-NTA dye (80 nM), and incubated on ice in the dark for 30 min. The stock solutions of ligands (c-di-AMP, c-di-GMP, ATP, AMP, c-AMP) were serially diluted with the binding buffer in a 1:1 ratio during each dilution step. The labeled proteins and the ligand dilutions were then mixed in a 1:1 ratio and incubated on ice in the dark for 30 min.
(§2) The samples were then loaded into Monolith standard-treated capillaries in triplicate, and the changes in fluorescence were measured with 40% LED power and 20% IR-laser power for an on-time of 20-s at 23 °C. To determine the binding affinity, the ligand-dependent changes in the intensity of the initial fluorescence, or the thermophoretic mobility, were analyzed according to the law of mass action in a standard fitting mode of MO.Affinity analysis software (version 2.3). To exclude the possibility of nonspecific binding of the ligand to the His6-tag (on USPSa) or ligand-induced USP adsorption to labware or due to aggregation, we performed His6-peptide and EDTA tests, respectively ([91]). In the His6-peptide test, a control His6-peptide was used instead of USP in the binding assay described above, and if no change in initial fluorescence occurred, this confirmed the USP-specific binding of ligands. In the EDTA test, the binding buffer additionally contained 50 mM EDTA to disrupt the interaction between His6-USP and the RED-Tris-NTA dye. The complete loss of the ligand-induced initial fluorescence change in this assay confirmed that this change was neither because of protein aggregation nor because of protein adsorption to labware.
(§3) The Ka values of WT USPSa for c-di-AMP or AMP were set to 100% relative affinity, and the binding affinities of the other nucleotides (Fig. 1C), or USPSa mutants (Fig. 4E), or USP homologs (Fig. 6, B and C) were depicted as percent values compared with the values of the WT USPSa.

USPSa-K282A = USPSa-K282A (Staphylococcus aureus, UniProt A0A7U7EVR3, K282A); assay: as above; details: K282A mutant, MST, read-out: Dissociation Constant (KD) ± Standard Deviation
Experimental: as §1, §2, §3

USPSa-L344A = target: T3, USPSa-L344A (Staphylococcus aureus, UniProt A0A7U7EVR3, L344A); assay: as above; details: L344A mutant
T3 sequence (A0A7U7EVR3 213-364 L344A): T2 sequence (A0A7U7EVR3 213-364 Y248A)
Experimental: as §1, §2, §3

USPSa-H331A = target: T4, USPSa-H331A (Staphylococcus aureus, UniProt A0A7U7EVR3, H331A); assay: as above
T4 sequence (A0A7U7EVR3 213-364 H331A): T2 sequence (A0A7U7EVR3 213-364 Y248A)
Experimental: as §1, §2, §3

USPSa-Q280A = USPSa-Q280A (Staphylococcus aureus, UniProt A0A7U7EVR3, Q280A); assay: as above; details: Q280A mutant, MST, read-out: Dissociation Constant (KD) ± Standard Deviation
Experimental: as §1, §2, §3

USPSa-S244D = target: T5, USPSa-S244D (Staphylococcus aureus, UniProt A0A7U7EVR3, S244D); assay: as above; details: S244D mutant
T5 sequence (A0A7U7EVR3 213-364 S244D): T2 sequence (A0A7U7EVR3 213-364 Y248A)
Experimental: as §1, §2, §3

USPSa-A242G = target: T6, USPSa-A242G (Staphylococcus aureus, UniProt A0A7U7EVR3, A242G); assay: as above; details: A242G mutant
T6 sequence (A0A7U7EVR3 213-364 A242G): T2 sequence (A0A7U7EVR3 213-364 Y248A)
Experimental: as §1, §2, §3

USPSa-N249A = target: T7, USPSa-N249A (Staphylococcus aureus, UniProt A0A7U7EVR3, N249A); assay: as above; details: N249A mutant; MST, initial fluorescence; read-out: Dissociation Constant (KD) ± Standard Deviation
T7 sequence (A0A7U7EVR3 213-364 N249A): T2 sequence (A0A7U7EVR3 213-364 Y248A)
Experimental: as §1, §2, §3

USPSa-Y281F = target: T8, USPSa-Y281F (Staphylococcus aureus, UniProt A0A7U7EVR3, Y281F); assay: as above; details: Y281F mutant
T8 sequence (A0A7U7EVR3 213-364 Y281F): T2 sequence (A0A7U7EVR3 213-364 Y248A)
Experimental: as §1, §2, §3

USPSa-S246A = target: T9, USPSa-S246A (Staphylococcus aureus, UniProt A0A7U7EVR3, S246A); assay: as above; details: S246A mutant
T9 sequence (A0A7U7EVR3 213-364 S246A): T2 sequence (A0A7U7EVR3 213-364 Y248A)
Experimental: as §1, §2, §3

USPSa-S244A = assay: as above; set-up: species or system Staphylococcus aureus; details: S244A mutant
Experimental: as §1, §2, §3

USPSa-R279A = USPSa-R279A (Staphylococcus aureus, UniProt A0A7U7EVR3, R279A); assay: MicroScale Thermophoresis (thermophoretic mobility change) nucleotide binding; details: R279A mutant; MST, change in thermophoretic mobility; read-out: Dissociation Constant (KD) ± Standard Deviation
Experimental: as §1, §2, §3

USPSa-WT [2] = target: T1, USPSa-WT; assay: as above; details: MST, change in thermophoretic mobility, read-out: Dissociation Constant (KD) ± Standard Deviation
Experimental: as §1, §2, §3

USPSa-K277A = target: T10, USPSa-K277A (Staphylococcus aureus, UniProt A0A7U7EVR3, K277A); assay: as above; details: K277A mutant
T10 sequence (A0A7U7EVR3 213-364 K277A): T2 sequence (A0A7U7EVR3 213-364 Y248A)
Experimental: as §1, §2, §3

[3] = Ka relative to WT USPSa set to 100%
[4] = MST, initial fluorescence, read-out: Dissociation Constant (KD) ± Standard Deviation

SMILES: Nc1ncnc2c1ncn2[C@@H]1O[C@H](COP(=O)(O)O)[C@@H](O)[C@H]1O [AMP]
- Kd (USPSa-WT [1]; His6-USPSa WT, MST): 2.65 ± 1.16 mM
- binding affinity, fold lower than that of c-di-AMP (USPSa-WT [1]; His6-USPSa WT, MST): > 5000 fold
- relative affinity (USPSa-Y248A; [3]): ~60%
- Kd (USPSa-Y248A; [4]): 5.4 ± 3.81 mM
- Kd (USPSa-K282A): 1.45 ± 0.64 mM
- relative affinity (USPSa-L344A; [3]): 40%
- Kd (USPSa-L344A; [4]): 4.14 ± 0.9 mM
- Kd (USPSa-H331A; H331A mutant, MST, initial fluorescence, read-out: Dissociation Constant (KD) ± Standard Deviation): 4.13 ± 0.11 mM
- loss of relative binding affinity (USPSa-H331A; His331 to Ala mutant, relative to WT USPSa): ~60%
- Kd (USPSa-Q280A): 1.82 ± 0.25 mM
- relative binding affinity (USPSa-S244D; [3]): ~50%
- Kd (USPSa-S244D; [4]): 4.06 ± 1.94 mM
- improvement of binding affinity versus WT USPSa (USPSa-A242G): ~25 fold
- Kd (USPSa-A242G; [4]): 140 ± 10 µM
- Kd (USPSa-N249A): 5.17 ± 3.42 mM
- binding relative to WT USPSa (USPSa-Y281F; [3]): ~30%
- Kd (USPSa-Y281F; [4]): 5.15 ± 0.35 mM
- relative binding affinity (USPSa-S246A; [3]): ~40%
- Kd (USPSa-S246A; [4]): 7.25 ± 0.21 mM
- binding in MST analysis (in words) (USPSa-S244A): did not bind
- Dissociation Constant (KD) ± Standard Deviation (USPSa-S244A; MST, initial fluorescence): No Binding Observed
- Kd (USPSa-R279A): 14.4 ± 0.95 mM
- Kd (USPSa-WT [2]): 20.7 ± 4.4 mM
- relative binding affinity (USPSa-K277A; [3]): ~45%
- Kd (USPSa-K277A; MST, change in thermophoretic mobility, read-out: Dissociation Constant (KD) ± Standard Deviation): 50.7 ± 4.03 mM

SMILES: Nc1ncnc2c1ncn2[C@@H]1O[C@H](COP(=O)(O)OP(=O)(O)OP(=O)(O)O)[C@@H](O)[C@H]1O [ATP, adenosine triphosphate]
- binding affinity, fold lower than that of c-di-AMP (USPSa-WT [1]): > 5000 fold
- Kd (USPSa-WT [1]; His6-USPSa WT, MST): 5.15 ± 0.07 mM

SMILES: Nc1ncnc2c1ncn2[C@@H]1O[C@@H]2COP(=O)(O)O[C@H]2[C@H]1O [c-AMP, cyclic AMP]
- Kd (USPSa-WT [1]; His6-USPSa WT, MST): 10 ± 0.71 mM
